The record followed here is ChEMBL document CHEMBL1201862, “PubChem BioAssay data set” (2004).

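Each compound was tested at five concentrations against cells in 96-well plates for 48 hours. GI50 = concentration required for 50% inhibition of growth.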 Activity calls are given as the source filed them. Cut-off read from the data, not from the text of the source: active = GI50 up to about 1.1 µM and inactive = higher.

Some test systems named below: UACC-62; SR; CCRF-CEM; SN12C; HL-60; RXF 393; UACC-257; SF-295; KM12; HCT-15; HT-29; SK-OV-3; NCI-H23; COLO 205; CAKI-1; HCT-116; TK-10; HOP-92; SW-620; SK-MEL-5.
Common to all, as to test: NCI-60 cell line screen, 48 h

For `O=C1C(S(=O)(=O)c2ccccc2)=C(CS(=O)(=O)c2ccccc2)[C@@H](OCc2ccccc2)[C@@H]1OCc1ccccc1`, the GI50 was 17.3 µM (inactive) in the test on UACC-62; 14.5 µM (inactive) in the test on SR; 14 µM (inactive) with CCRF-CEM; 22.3 µM (inactive) with SN12C; 17.1 µM (inactive) in the test with HL-60; 13.9 µM (inactive) in the test with RXF 393. In addition, the GI50 was 21.6 µM (inactive) in the test with UACC-257; 18.7 µM (inactive) in the test on SF-295; 0.0519 µM (active) in the test on KM12; 18.2 µM with HCT-15; 13.5 µM (inactive) in the test with HT-29; 41.5 µM (inactive) in the test with SK-OV-3. Moreover, the GI50 was 16.9 µM (inactive) in the test with NCI-H23; 25.8 µM (inactive) in the test on COLO 205; 30.1 µM (inactive) in the test with CAKI-1; 13.6 µM (inactive) in the test on HCT-116; 31.8 µM (inactive) in the test on TK-10; 12.4 µM (inactive) with HOP-92. Further, the GI50 is 18.7 µM (inactive) in the test with SW-620 and 18.2 µM (inactive) in the test on SK-MEL-5.
Take `CC(C)(C)OC(=O)N1CCCC1C(=O)NC(c1ccccc1)c1ccccc1` (stereo not given): the GI50 in the test on UACC-62, in the test on SR, in the test with CCRF-CEM, with SN12C, with HL-60 and in the test on RXF 393 was > 100 µM (inactive) in each case. The GI50 in the test on UACC-257 was > 100 µM (inactive); with SF-295, > 100 µM (inactive); with KM12, > 100 µM (inactive); in the test with HCT-15 it was over 100 µM; in the test with HT-29, > 100 µM (inactive); with SK-OV-3, > 100 µM (inactive). Besides, the GI50 in the test with NCI-H23, in the test with COLO 205, with CAKI-1, with HCT-116, in the test on TK-10 and in the test on HOP-92 was > 100 µM (inactive) each time. The GI50 in the test on SW-620 and in the test with SK-MEL-5 was > 100 µM (inactive) in each case.
On to `COC1C(O)C(C)OC(O[C@@H]2C[C@H]3CC[C@@H]4[C@H](CC[C@]5(C)[C@@H](C6=CC(=O)OC6)CC[C@]45O)[C@@]3(C)[C@H](O)C2)C1O` (stereo not given in full), for which the GI50 in the test on UACC-62 is 0.142 µM (active); in the test with SR it was 0.0766 µM (active); in the test with CCRF-CEM, 0.0559 µM (active); with SN12C, < 0.01 µM (active); in the test on HL-60, < 0.04 µM (active); in the test with RXF 393 it was < 0.0161 µM (active). In addition, the GI50 in the test on UACC-257 was 0.1 µM (active); in the test on SF-295, < 0.0371 µM (active); in the test with KM12 it was 0.296 µM (active); in the test on HCT-15 it was 0.0826 µM; in the test on HT-29, 0.0849 µM (active); in the test with SK-OV-3 it was < 0.0193 µM (active). For the same molecule, the GI50 is 0.0262 µM (active) in the test with NCI-H23; 0.191 µM (active) with COLO 205; 0.0225 µM (active) with CAKI-1; < 0.0225 µM (active) in the test on HCT-116; 0.0361 µM (active) in the test on TK-10; 0.106 µM (active) in the test on HOP-92. For the same molecule, the GI50 in the test with SW-620 is 0.0782 µM (active); in the test on SK-MEL-5, < 0.0258 µM (active).
Take `CC(C)c1cccc(C(C)C)c1NC(=O)C(=O)C1CCC2=C(Sc3ccccc3N2)C1=O` (stereo not given): the GI50 in the test with UACC-62 was > 100 µM (inactive); with SR it was > 100 µM (inactive); in the test with CCRF-CEM it was 24 µM (inactive); in the test with SN12C, 28.8 µM (inactive); in the test with HL-60 it was 74.1 µM (inactive); in the test with RXF 393, > 100 µM (inactive). Also, the GI50 in the test on UACC-257 is 67.3 µM (inactive); in the test with SF-295 it was 80.5 µM (inactive); with KM12, > 100 µM (inactive); with HCT-15, 61.7 µM; in the test with HT-29 it was 58.5 µM (inactive); in the test on SK-OV-3 it was 60.8 µM (inactive). Moreover, the GI50 in the test with NCI-H23 was 31.6 µM (inactive); with COLO 205 it was 24.4 µM (inactive); in the test with CAKI-1, 64.4 µM (inactive); in the test on HCT-116, 48.9 µM (inactive); in the test on TK-10, > 100 µM (inactive); in the test on HOP-92, > 100 µM (inactive). Moreover, the GI50 in the test with SW-620 was 12 µM (inactive); in the test on SK-MEL-5, 56.2 µM (inactive).
`CC(C)c1cccc2sc(NC(=O)C(=O)C(C#N)c3cccc4ccccc34)nc12` (stereo not given): the GI50 is 57.4 µM (inactive) with UACC-62; 32.4 µM (inactive) in the test with SR; 41.8 µM (inactive) in the test on CCRF-CEM; > 100 µM (inactive) with SN12C; 30.5 µM (inactive) in the test with HL-60; 25.2 µM (inactive) in the test with RXF 393. The GI50 in the test on UACC-257 is 92.3 µM (inactive); with SF-295, 69.7 µM (inactive); in the test on KM12, > 100 µM (inactive); with HCT-15, 75.5 µM; with HT-29 it was 77.4 µM (inactive); with SK-OV-3 it was 48.4 µM (inactive). Also, the GI50 was 61.5 µM (inactive) with NCI-H23; > 100 µM (inactive) in the test with COLO 205; 30.5 µM (inactive) with CAKI-1; 76.9 µM (inactive) in the test on HCT-116; > 100 µM (inactive) in the test on TK-10; 30.4 µM (inactive) in the test with HOP-92. Besides, the GI50 in the test with SW-620 was > 100 µM (inactive); in the test on SK-MEL-5 it was 68.1 µM (inactive).
As for `COc1cccc2c1C(=O)c1c(O)c3c(c(O)c1C2=O)C[C@@](O)(C(C)=O)CC3S(=O)(=O)O` (stereo not given in full), the GI50 with UACC-62 is > 100 µM (inactive); in the test on SR, > 84.1 µM (inactive); in the test with CCRF-CEM it was > 100 µM (inactive); in the test on SN12C it was > 100 µM (inactive); in the test on HL-60, > 100 µM (inactive); with RXF 393, > 100 µM (inactive). Also, the GI50 with UACC-257 was > 100 µM (inactive); in the test with SF-295, > 100 µM (inactive); in the test on KM12, > 100 µM (inactive); with HCT-15 it was over 100 µM; with HT-29 it was > 100 µM (inactive); with SK-OV-3, > 100 µM (inactive). The GI50 with NCI-H23, in the test with COLO 205, in the test on CAKI-1, with HCT-116, in the test on TK-10 and in the test with HOP-92 was > 100 µM (inactive) throughout. In addition, the GI50 in the test on SW-620 and in the test on SK-MEL-5 was > 100 µM (inactive) in each case.
Take `COc1ccc(C(=O)Oc2c(C#N)sc3c2c(=O)n(-c2ccccc2)c(=S)n3-c2ccccc2)cc1`: the GI50 in the test with UACC-62 is 5.66 µM (inactive); in the test on SR it was < 0.01 µM (active); in the test on CCRF-CEM, 15.1 µM (inactive); in the test on SN12C it was 23.5 µM (inactive); in the test with HL-60, 22.2 µM (inactive); with RXF 393 it was 21.8 µM (inactive). The GI50 in the test with UACC-257 is 47.5 µM (inactive); in the test with SF-295 it was 35.7 µM (inactive); in the test on KM12, 18.5 µM (inactive); with HCT-15, 16.7 µM; in the test with HT-29, 22.2 µM (inactive); with SK-OV-3 it was 33.9 µM (inactive). In addition, the GI50 with NCI-H23 was 20.3 µM (inactive); in the test on COLO 205 it was 25.8 µM (inactive); in the test with CAKI-1, 22.3 µM (inactive); in the test on HCT-116, 18.1 µM (inactive); in the test on TK-10 it was 28 µM (inactive); with HOP-92, 23.6 µM (inactive). In addition, the GI50 in the test with SW-620 is 32.7 µM (inactive); in the test on SK-MEL-5, 21.6 µM (inactive).
`C[Si](C)(OCCS(=O)(=O)O)C1S(=O)(=O)OCCOS1(=O)=O`: the GI50 in the test with UACC-62 is 13.7 µM (inactive); in the test on SR, 38.4 µM (inactive); in the test on CCRF-CEM, 58.1 µM (inactive); with SN12C, > 100 µM (inactive); with HL-60 it was 27.5 µM (inactive); in the test with RXF 393, 21.7 µM (inactive). Moreover, the GI50 in the test with UACC-257 is > 100 µM (inactive); in the test with SF-295, 4.86 µM (inactive); in the test with KM12, 91.6 µM (inactive); with HCT-15, 67.5 µM; in the test on HT-29 it was > 100 µM (inactive); in the test with SK-OV-3 it was 79.4 µM (inactive). Moreover, the GI50 is 53.8 µM (inactive) with NCI-H23; > 100 µM (inactive) with COLO 205; 27.7 µM (inactive) in the test on CAKI-1; 67.1 µM (inactive) in the test on HCT-116; > 100 µM (inactive) in the test with TK-10; 23.8 µM (inactive) in the test on HOP-92. In addition, the GI50 in the test with SW-620 was 0.495 µM (active); in the test with SK-MEL-5, 49.5 µM (inactive).
For the molecule `CCC1=C(C(C)=O)[C@@H]2CCCCC[C@@H](C(=O)OC)C2C1=O` (stereo not given in full), the GI50 in the test on UACC-62, in the test with SR, in the test with CCRF-CEM, with SN12C, in the test with HL-60 and with RXF 393 was > 100 µM (inactive) in each case. Also, the GI50 in the test with UACC-257 was > 100 µM (inactive); in the test on SF-295, > 100 µM (inactive); in the test with KM12, > 100 µM (inactive); in the test with HCT-15, over 100 µM; in the test on HT-29 it was > 100 µM (inactive); with SK-OV-3, > 100 µM (inactive). For the same molecule, the GI50 with NCI-H23, with COLO 205, in the test with CAKI-1, in the test with HCT-116, with TK-10 and with HOP-92 was > 100 µM (inactive) in each case. Besides, the GI50 in the test with SW-620 and in the test with SK-MEL-5 was > 100 µM (inactive) in each case.
`CC(C)(C)c1ccc(OCCOc2ccc(C(C)(C)C)cc2NC=O)c(NC=O)c1`: the GI50 with UACC-62 was 12.5 µM (inactive); with SR it was 11.7 µM (inactive); with CCRF-CEM, 2.06 µM (inactive); in the test with SN12C it was 15 µM (inactive); in the test with HL-60 it was 6.04 µM (inactive); with RXF 393 it was 8.77 µM (inactive). Also, the GI50 in the test with UACC-257 was 5.85 µM (inactive); with SF-295, 5.5 µM (inactive); in the test on KM12, 3.77 µM (inactive); with HCT-15 it was 3.81 µM; in the test on HT-29, 3.08 µM (inactive); with SK-OV-3, 20.9 µM (inactive). Also, the GI50 in the test on NCI-H23 was 7.11 µM (inactive); with COLO 205 it was 1.94 µM (inactive); with CAKI-1, 19.4 µM (inactive); in the test on HCT-116, 6.43 µM (inactive); in the test on TK-10, 15.1 µM (inactive); in the test on HOP-92 it was 7 µM (inactive). Also, the results for the GI50 in the test on SW-620 and in the test on SK-MEL-5 were 4.39 µM (inactive) and 4.13 µM (inactive), respectively.
